For orientation: Kd means the free concentration of one partner at which half of the binding sites on the other are occupied at equilibrium, for simple one-to-one binding. High values mean weaker binding, low ones tighter binding.

T1 sequence (O60674 849-1124 Y1007F/Y1008F limits assumed): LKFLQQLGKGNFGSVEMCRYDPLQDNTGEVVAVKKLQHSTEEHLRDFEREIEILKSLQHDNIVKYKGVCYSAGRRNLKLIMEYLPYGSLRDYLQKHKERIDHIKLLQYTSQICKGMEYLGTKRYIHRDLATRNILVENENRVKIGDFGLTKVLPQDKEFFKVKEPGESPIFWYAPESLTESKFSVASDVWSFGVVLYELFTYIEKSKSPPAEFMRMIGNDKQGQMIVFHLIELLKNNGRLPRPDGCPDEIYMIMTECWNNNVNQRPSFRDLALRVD

This assay has as its target T1, JAK2 (JH1domain-catalytic, Y1007F,Y1008F) kinase (Homo sapiens, UniProt O60674, Y1007F/Y1008F).
T1 construct: JAK2 (JH1domain-catalytic, Y1007F,Y1008F) kinase was expressed as N-terminal fusion; made in house; host or cells: transiently transfected HEK293 cells
Briefly: JAK2 JH1 Domain Binding Assay. As to conditions: qPCR readout. For orientation: Real-time PCR tracks product formation cycle by cycle.
Consider `Cn1c(Nc2ccc(CN3CCC(O)C3)c(C(F)(F)F)c2)nc2ncc(Oc3cnn4ccncc34)c(Cl)c21` (stereo in doubt) [Example I-186, (R)-1-(4-((7-chloro-1-methyl-6-(pyrazolo[1,5-a]pyrazin-3-yloxy)-1H-imidazo[4,5-b]pyridin-2-yl)amino)-2-(trifluoromethyl)benzyl)pyrrolidin-3-ol], for which the Kd is less than 10 nM.
`Cn1c(Nc2cc(N3CCC(O)C3)cc(C(F)(F)F)c2)nc2ncc(Oc3cnn4ccncc34)c(Cl)c21` (stereo in doubt) [Example I-239, (S)-1-(3-((7-chloro-1-methyl-6-(pyrazolo[1,5-a]pyrazin-3-yloxy)-1H-imidazo[4,5-b]pyridin-2-yl)amino)-5-(trifluoromethyl)phenyl)pyrrolidin-3-ol] yielded a Kd of less than 10 nM.
With `CN(C)C1CCN(Cc2cc(Nc3nc4ncc(Oc5cnn6ccncc56)c(Cl)c4n3C)cc(C(F)(F)F)c2)C1` (stereo in doubt) [Example I-272, (R)-7-chloro-N-(3-((3-(dimethylamino)pyrrolidin-1-yl)methyl)-5-(trifluoromethyl)phenyl)-1-methyl-6-(pyrazolo[1,5-a]pyrazin-3-yloxy)-1H-imidazo[4,5-b]pyridin-2-amine] the figure was less than 10 nM; with `Cn1c(Nc2cc(C(C)(C)C)n([C@@H]3CCOC3)n2)nc2ncc(Oc3cnc4[nH]c(C5CC5)cc4c3)cc21` [Example I-1, (R)—N-(5-(tert-butyl)-1-(tetrahydrofuran-3-yl)-1H-pyrazol-3-yl)-6-((2-cyclopropyl-1H-pyrrolo[2,3-b]pyridin-5-yl)oxy)-1-methyl-1H-imidazo[4,5-b]pyridin-2-amine], 10 to 50 nM.
In the case of `Cn1c(Nc2cc(C(C)(C)C)n([C@H]3CCOC3)n2)nc2ncc(Oc3cnc4[nH]c(C5CC5)cc4c3)cc21` [Example I-2, (S)—N-(5-(tert-butyl)-1-(tetrahydrofuran-3-yl)-1H-pyrazol-3-yl)-6-((2-cyclopropyl-1H-pyrrolo[2,3-b]pyridin-5-yl)oxy)-1-methyl-1H-imidazo[4,5-b]pyridin-2-amine], the Kd fell in the range of 10 to 50 nM.
As for `Cc1n[nH]c2ncc(Oc3cnc4nc(Nc5cc(C(C)(C)C)n([C@@H]6CCOC6)n5)n(C)c4c3)cc12` [Example I-3], the figure is less than 10 nM; as for `Cc1n[nH]c2ncc(Oc3cnc4nc(Nc5cc(C(C)(C)C)n([C@H]6CCOC6)n5)n(C)c4c3)cc12` [Example I-4, (S)—N-(5-(tert-butyl)-1-(tetrahydrofuran-3-yl)-1H-pyrazol-3-yl)-1-methyl-6-((3-methyl-1H-pyrazolo[3,4-b]pyridin-5-yl)oxy)-1H-imidazo[4,5-b]pyridin-2-amine], less than 10 nM; as for `Cc1cc2ncc(Oc3cnc4nc(Nc5cc(C(C)(C)C)n([C@@H]6CCOC6)n5)n(C)c4c3Cl)cn2n1` [Example I-5, (R)—N-(5-(tert-butyl)-1-(tetrahydrofuran-3-yl)-1H-pyrazol-3-yl)-7-chloro-1-methyl-6-((2-methylpyrazolo[1,5-a]pyrimidin-6-yl)oxy)-1H-imidazo[4,5-b]pyridin-2-amine], 10 to 50 nM.
With `Cc1cc2ncc(Oc3cnc4nc(Nc5cc(C(C)(C)C)n([C@H]6CCOC6)n5)n(C)c4c3Cl)cn2n1` [Example I-6, (S)—N-(5-(tert-butyl)-1-(tetrahydrofuran-3-yl)-1H-pyrazol-3-yl)-7-chloro-1-methyl-6-((2-methylpyrazolo[1,5-a]pyrimidin-6-yl)oxy)-1H-imidazo[4,5-b]pyridin-2-amine] the figure was 10 to 50 nM; with `Cn1c(Nc2cc(C(F)(F)C(F)(F)F)n([C@@H]3CCOC3)n2)nc2ncc(Oc3cnc4ccnn4c3)c(Cl)c21` [Example I-7, (R)-7-chloro-1-methyl-N-(5-(perfluoroethyl)-1-(tetrahydrofuran-3-yl)-1H-pyrazol-3-yl)-6-(pyrazolo[1,5-a]pyrimidin-6-yloxy)-1H-imidazo[4,5-b]pyridin-2-amine], 10 to 50 nM; with `Cn1c(Nc2cc(C(F)(F)C(F)(F)F)n([C@H]3CCOC3)n2)nc2ncc(Oc3cnc4ccnn4c3)c(Cl)c21` [Example I-8, (S)-7-chloro-1-methyl-N-(5-(perfluoroethyl)-1-(tetrahydrofuran-3-yl)-1H-pyrazol-3-yl)-6-(pyrazolo[1,5-a]pyrimidin-6-yloxy)-1H-imidazo[4,5-b]pyridin-2-amine], 10 to 50 nM.
As for `Cn1c(Nc2cc(C(C)(C)C)n([C@@H]3CCOC3)n2)nc2ncc(Oc3cnc4[nH]cc(C#N)c4c3)cc21` [Example I-9], the figure is 50 to 1000 nM; as for `Cn1c(Nc2cc(C(C)(C)C)n([C@H]3CCOC3)n2)nc2ncc(Oc3cnc4[nH]cc(C#N)c4c3)cc21` [Example I-10, (S)-5-((2-((5-(tert-butyl)-1-(tetrahydrofuran-3-yl)-1H-pyrazol-3-yl)amino)-1-methyl-1H-imidazo[4,5-b]pyridin-6-yl)oxy)-1H-pyrrolo[2,3-b]pyridine-3-carbonitrile], 1000 to 5000 nM.
`COCc1c[nH]c2ncc(Oc3cnc4nc(Nc5cc(C(C)(C)C)n([C@@H]6CCOC6)n5)n(C)c4c3)cc12` [Example I-11]: the Kd is less than 10 nM.
Compound `COCc1c[nH]c2ncc(Oc3cnc4nc(Nc5cc(C(C)(C)C)n([C@H]6CCOC6)n5)n(C)c4c3)cc12` [Example I-12] had a Kd of less than 10 nM.
The compound `Cn1c(Nc2cc(C(C)(C)C)n([C@H]3CCOC3)n2)nc2ncc(Oc3cnn4ccnc4c3)c(Cl)c21` [Example I-13, (S)—N-(5-(tert-butyl)-1-(tetrahydrofuran-3-yl)-1H-pyrazol-3-yl)-7-chloro-6-(imidazo[1,2-b]pyridazin-7-yloxy)-1-methyl-1H-imidazo[4,5-b]pyridin-2-amine] came in with a Kd of 10 to 50 nM.
As for `Cn1c(Nc2cc(C(C)(C)C)n([C@@H]3CCOC3)n2)nc2ncc(Oc3cnn4ccnc4c3)c(Cl)c21` [Example I-14, (R)—N-(5-(tert-butyl)-1-(tetrahydrofuran-3-yl)-1H-pyrazol-3-yl)-7-chloro-6-(imidazo[1,2-b]pyridazin-7-yloxy)-1-methyl-1H-imidazo[4,5-b]pyridin-2-amine], the figure is 10 to 50 nM.
With `Cn1c(Nc2cc(C(C)(C)C)n([C@@H]3CCOC3)n2)nc2ncc(Oc3cnn4cnnc4c3)c(Cl)c21` [Example I-15, (R)-6-([1,2,4]triazolo[4,3-b]pyridazin-7-yloxy)-N-(5-(tert-butyl)-1-(tetrahydrofuran-3-yl)-1H-pyrazol-3-yl)-7-chloro-1-methyl-1H-imidazo[4,5-b]pyridin-2-amine] the figure was 50 to 1000 nM.
As for `Cn1c(Nc2cc(C(C)(C)C)n([C@H]3CCOC3)n2)nc2ncc(Oc3cnn4cnnc4c3)c(Cl)c21` [Example I-16, (S)-6-([1,2,4]triazolo[4,3-b]pyridazin-7-yloxy)-N-(5-(tert-butyl)-1-(tetrahydrofuran-3-yl)-1H-pyrazol-3-yl)-7-chloro-1-methyl-1H-imidazo[4,5-b]pyridin-2-amine], the Kd is 10 to 50 nM.
Consider `Cn1c(Nc2cc(C(C)(C)C#N)n([C@H]3CCOC3)n2)nc2ncc(Oc3cnc4ccnn4c3)c(Cl)c21` [Example I-17, (S)-2-(3-((7-chloro-1-methyl-6-(pyrazolo[1,5-a]pyrimidin-6-yloxy)-1H-imidazo[4,5-b]pyridin-2-yl)amino)-1-(tetrahydrofuran-3-yl)-1H-pyrazol-5-yl)-2-methylpropanenitrile], for which the Kd fell in the range of 10 to 50 nM.
For the compound `Cn1c(Nc2cc(C(C)(C)C#N)n([C@@H]3CCOC3)n2)nc2ncc(Oc3cnc4ccnn4c3)c(Cl)c21` [Example I-18, (R)-2-(3-((7-chloro-1-methyl-6-(pyrazolo[1,5-a]pyrimidin-6-yloxy)-1H-imidazo[4,5-b]pyridin-2-yl)amino)-1-(tetrahydrofuran-3-yl)-1H-pyrazol-5-yl)-2-methylpropanenitrile], the Kd lay in the range of 10 to 50 nM.
On to `CN1CC[C@H](n2nc(Nc3nc4ncc(Oc5cnc6sccc6c5)c(Cl)c4n3C)cc2C(C)(C)C)C1` [Example I-19, (S)—N-(5-(tert-butyl)-1-(1-methylpyrrolidin-3-yl)-1H-pyrazol-3-yl)-7-chloro-1-methyl-6-(thieno[2,3-b]pyridin-5-yloxy)-1H-imidazo[4,5-b]pyridin-2-amine], for which the Kd is 10 to 50 nM.
As for `CN1CC[C@@H](n2nc(Nc3nc4ncc(Oc5cnc6sccc6c5)c(Cl)c4n3C)cc2C(C)(C)C)C1` [Example I-20, (R)—N-(5-(tert-butyl)-1-(1-methylpyrrolidin-3-yl)-1H-pyrazol-3-yl)-7-chloro-1-methyl-6-(thieno[2,3-b]pyridin-5-yloxy)-1H-imidazo[4,5-b]pyridin-2-amine], the figure is 50 to 1000 nM.
Consider `Cn1c(Nc2cc(C(C)(C)C)n([C@@H]3CCOC3)n2)nc2ncc(Oc3cnn4ccncc34)c(Cl)c21` [Example I-21, (R)—N-(5-(tert-butyl)-1-(tetrahydrofuran-3-yl)-1H-pyrazol-3-yl)-7-chloro-1-methyl-6-(pyrazolo[1,5-a]pyrazin-3-yloxy)-1H-imidazo[4,5-b]pyridin-2-amine], for which the dissociation constant Kd is less than 10 nM.
For `Cn1c(Nc2cc(C(C)(C)C)n([C@H]3CCOC3)n2)nc2ncc(Oc3cnn4ccncc34)c(Cl)c21` [Example I-22, (S)—N-(5-(tert-butyl)-1-(tetrahydrofuran-3-yl)-1H-pyrazol-3-yl)-7-chloro-1-methyl-6-(pyrazolo[1,5-a]pyrazin-3-yloxy)-1H-imidazo[4,5-b]pyridin-2-amine], the Kd was less than 10 nM.
As for `Cn1c(Nc2cc(C(C)(C)C)n([C@H]3CCN(CCF)C3)n2)nc2ncc(Oc3cnn4ccnc4c3)c(Cl)c21` [Example I-25, (S)—N-(5-(tert-butyl)-1-(1-(2-fluoroethyl)pyrrolidin-3-yl)-1H-pyrazol-3-yl)-7-chloro-6-(imidazo[1,2-b]pyridazin-7-yloxy)-1-methyl-1H-imidazo[4,5-b]pyridin-2-amine], the figure is 10 to 50 nM.
With `Cn1c(Nc2cc(C(C)(C)C)n([C@@H]3CCN(CCF)C3)n2)nc2ncc(Oc3cnn4ccnc4c3)c(Cl)c21` [Example I-26, (R)—N-(5-(tert-butyl)-1-(1-(2-fluoroethyl)pyrrolidin-3-yl)-1H-pyrazol-3-yl)-7-chloro-6-(imidazo[1,2-b]pyridazin-7-yloxy)-1-methyl-1H-imidazo[4,5-b]pyridin-2-amine] the figure was 50 to 1000 nM.
